The values that follow come from patent US5750826A, “Bradykinin B2 receptor modified transgenic non-human animals” (Merck & Co., Inc., priority 1996, dated 1998).

For orientation: IC50 means the concentration at which inhibition is half-maximal. As a reminder, the inhibition is the relative decrease from the control value, in per cent. High values mean strong suppression, low ones little suppression.

One test has as its system B2 receptor. The note with it: cited from earlier work.
Another test concerns B1 receptor. The note with it: cited from earlier work.
Test [1] deals with T1, mouse B2 bradykinin receptor (Mus musculus, UniProt P32299).
T1 construct: The PCR product begins 99 bp upstream of the initiator methionine codon and ends 49 bp downstream of the stop codon; expressed in transfected cells; host or cells: COS-7 (transient), pcDNAI-Neo
T1 sequence (P32299 1-366 isoform P32299-2): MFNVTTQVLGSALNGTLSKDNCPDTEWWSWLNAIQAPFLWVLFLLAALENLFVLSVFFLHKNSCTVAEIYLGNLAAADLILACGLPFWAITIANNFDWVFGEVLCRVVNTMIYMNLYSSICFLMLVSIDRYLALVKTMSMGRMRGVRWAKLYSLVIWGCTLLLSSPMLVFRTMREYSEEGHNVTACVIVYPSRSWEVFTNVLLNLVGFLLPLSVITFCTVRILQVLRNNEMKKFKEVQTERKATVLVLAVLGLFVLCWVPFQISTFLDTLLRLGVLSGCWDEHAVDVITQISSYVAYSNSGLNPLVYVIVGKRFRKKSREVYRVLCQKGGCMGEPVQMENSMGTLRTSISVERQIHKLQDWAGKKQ
As to the kind of experiment: Competition binding using 100 pM [3H]BK at the expressed mouse B2 bradykinin receptor. To be noted: expressed mouse B2 receptor, 100 pM [3H]BK. The procedure: Binding assays were then performed to determine receptor antagonist or agonist interaction. The assays utilized in the instant invention follow the method of Manning et al., J. Pharmacol. Exp. Ther., 237, 504-512 (1986). [^3 H]BK at various concentrations was incubated for 60 minutes at 25° C. with approximately 50ug membrane protein from COS-7 cells in a volume of 1 ml. The assay was terminated by filtration over Whatman GF/B filters presoaked for 3 hours in 0.1 % polyethyleneimine using a BRANDEL M-24 CELL […] (BRANDEL, Gaithersburg, Md.). The tubes were rinsed two times with 4 ml ice-cold […] and the filter bound radioactivity was quantitated by liquid scintillation counting. Nonspecific binding was determined by performing incubation in the presence of 1 uM BK and generally represents less than 5% of the total binding at 100pM ^3 H]BK. Competition binding experiments, in the presence of 100pM[^3 H]BK, were performed with varying concentrations of the test compound(s). The competition and saturation experiments were analyzed using the EBDA program of McPherson. See McPherson, G.A. J Pharmacol. Methods 14, 213-218 (1985).
To verify the pharmacological properties of the mouse bradykinin B2 receptor the coding sequence of the mouse B2 bradykinin receptor was isolated by PCR (Perkin Elmer/Cetus) using a Techne thermocycler with the template being the EcoR I by Hind III genomic fragment in pSP72 and the 5' primer 5'-[…]-3' (SEQ.ID.NO.:8) and the 3' primer 5'- […]-3' (SEQ.ID.NO.:9). The PCR product was subcloned into the Hind III and Xba I sites of the eukaryotic expression vector pcDNAI-Neo (Invitrogen). The PCR product begins 99 bp upstream of the initiator methionine codon and ends 49 bp downstream of the stop codon. The DNA sequence analysis using Sequenase (US Biochemical) of the subcloned PCR product confirmed that the sequence was identical to that in the original genomic fragment.

A further test deals with rat vas deferens. The note with it: cited from earlier work.
In test [2] the target is T2, human B2 bradykinin receptor (Homo sapiens, UniProt P30411).
T2 construct: placing the entire B2 clone under the control of the CMV promoter; expressed in transfected cells
T2 sequence (P30411 1-364 isoform P30411-2): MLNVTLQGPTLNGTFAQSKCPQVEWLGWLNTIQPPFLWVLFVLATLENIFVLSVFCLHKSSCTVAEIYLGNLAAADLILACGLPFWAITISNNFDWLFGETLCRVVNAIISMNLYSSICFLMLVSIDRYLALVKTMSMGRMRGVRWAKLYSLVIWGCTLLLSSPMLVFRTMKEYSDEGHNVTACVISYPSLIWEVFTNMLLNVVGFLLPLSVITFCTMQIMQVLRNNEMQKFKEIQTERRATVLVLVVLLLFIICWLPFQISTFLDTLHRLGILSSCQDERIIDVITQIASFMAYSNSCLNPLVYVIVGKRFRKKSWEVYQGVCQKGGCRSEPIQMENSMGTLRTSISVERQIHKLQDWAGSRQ
As to the kind of experiment: Competition binding against 100 pM [3H]BK at the cloned human B2 receptor (COS-7). Here is the method: (§1) In order to enable expression of the cDNA that encodes for the B2 bradykinin receptor, COS-7 cells were transfected using LIPOFECTIN (BRL, Gaithersburg, Md.) with 50ug/10^7 cells of the B2 receptor cDNA subcloned into the eukaryotic expression vector pcDNA I-Neo (Invitrogen). Cells were then harvested after 72 hours and the membranes containing the expressed receptor protein were prepared by scraping the cells in phosphate buffered saline solution and centrifuging for ten minutes at 500× g. The cell pellet was then resuspended and homogenized with a Polytron in 20 mM N-tris(hydroxymethyl)methyl-2-aminoethane sulfonic acid (TES,pH 6.8 at room temperature) buffer containing 1 mM 1, 10 phenanthroline. The homogenate was then centrifuged for ten minutes at 500 × g. The final membrane pellet was resuspended in assay buffer (TES plus 0.1% protease free bovine serum albumin, 5 uM MK-422 (enalaprilat; Gross et al., 1981) and 140 ug/ml bacitracin using a motor-driven teflon-glass tissue homogenizer. Protein determination was performed by the method of Bradford using bovine IgG as the standard. See Bradford, M.A. Anal. Biochem. 72, 248-254 (1976).
Binding assays were then performed to determine receptor antagonist or agonist interaction. The assays utilized in the instant invention follow the method of Manning et al., J. Pharmacol. Exp. Ther., 237, 504-512 (1986). […] (BRANDEL, Gaithersburg, Md.). The tubes were rinsed two times with 4 ml ice-cold […] and the filter bound radioactivity was quantitated by liquid scintillation counting. […] The competition and saturation experiments were analyzed using the EBDA program of McPherson. See McPherson, G.A. J Pharmacol. Methods 14, 213-218 (1985).

A further test has as its system Swiss 3T3 fibroblasts. To be noted: cited from earlier work.
A further test has as its system guinea pig ileum mucosa. The note with it: nanomolar concentrations, serosal surface; cited from earlier work.
The subject of test [3] is mock transfected COS-7 cells. As to the kind of experiment: Binding of BK to membranes of mock transfected COS-7 cells. To be noted: membranes from mock transfected COS-7 cells. The procedure: as §1, with “The final membrane pellet was resuspended in assay buffer (TES plus 0.1% protease free bovine serum albumin, 5 uM MK-422 (enalaprilat; Gross et al., 1981) and 140 ug/ml bacitracin using a motor-driven teflon-glass tissue homogenizer. Protein determination was performed by the method of Bradford using bovine IgG as the standard. See Bradford, M.A. Anal. Biochem. 72, 248-254 (1976).” left out
Binding assays were then performed to determine receptor antagonist or agonist interaction. […] The tubes were rinsed two times with 4 ml ice-cold […] and the filter bound radioactivity was quantitated by liquid scintillation counting. […] The competition and saturation experiments were analyzed using the EBDA program of McPherson. […]

Test [4] deals with CPAE cells (bovine pulmonary artery endothelial cells). The note with it: cited from earlier work.

Where no end group is shown, it is not given here.

As to `N=C(N)NCCC[C@H](N)C(=O)N1CCC[C@H]1C(=O)N1CCC[C@H]1C(=O)NCC(=O)N[C@@H](Cc1ccccc1)C(=O)N[C@@H](CO)C(=O)N1CCC[C@H]1C(=O)N[C@@H](Cc1ccccc1)C(=O)O` [Des-Arg^9 BK], the “activity at B2 receptors” value in the test with B2 receptor was “inactive at B2 receptors”. In addition, the “potency as B1 receptor agonist relative to BK” value with B1 receptor was “higher potency than BK”. Also, the affinity result in test [1] is “very low affinity”. Also, the IC50 in test [1] (read-out: IC50) was determined as 6 µM. Further, in the test with rat vas deferens (rat vas deferens), the “pre- or postsynaptic BK like responses” value is “inactive”. Further, the inhibition at 10 µM in test [2] (10 uM, human B2 receptor) stood at 18%.
Consider RPPGFSPFR [BK], for which the “phospholipase C mediated InsP formation and PGE-2 synthesis” value in the test with Swiss 3T3 fibroblasts is “stimulated”. In the test on guinea pig ileum mucosa, the “transepithelial potential difference (p.d.) and short circuit current (ISC)” value is “rapidly increased”. Besides, the “BK specific binding sites” value in test [3] is “did not contain any detectable BK specific binding sites”. Besides, in test [4], the “activity of phosphatidylcholine-specific PLC” value was “stimulates”. Further, in [1], the affinity entry was “high (subnanomolar) affinity”. For the same molecule, in the test on rat vas deferens (musculotropic/postjunctional action), the “contraction of smooth muscle / muscle tone” value is on record as “contracted the smooth muscle generating an increased muscle tone”. In the test with rat vas deferens (neurogenic/presynaptic effect), the “magnitude of the muscular response to electrically driven twitches” value was “potentiated”. Further, in [2], the “specificity of binding (rank order)” value is listed as “BK>lys-BK>met-lys-BK”.
